The results in this text go back to ChEMBL document CHEMBL1201862, “PubChem BioAssay data set” (2004).

Calls of active or inactive are those of the source.

Test [1] concerns the target Heat shock protein HSP 90-alpha (Homo sapiens, UniProt P07900). In kind it is functional, organism-based.
Test [2] is described as follows: half-maximal inhibitory concentration for glucagon-like peptide-1 release, STC-1 cell line, dose-response (AID 1117345). In kind it is functional, cell-based.
For test [3], the target named is Voltage-gated inwardly rectifying potassium channel KCNH2 (Homo sapiens, UniProt Q12809). The settings on record: Potency.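 Further: confirmatory quantitative high-throughput screen measuring inhibition of hERG channel activity.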
Chain of Voltage-gated inwardly rectifying potassium channel KCNH2 (Q12809 whole entry): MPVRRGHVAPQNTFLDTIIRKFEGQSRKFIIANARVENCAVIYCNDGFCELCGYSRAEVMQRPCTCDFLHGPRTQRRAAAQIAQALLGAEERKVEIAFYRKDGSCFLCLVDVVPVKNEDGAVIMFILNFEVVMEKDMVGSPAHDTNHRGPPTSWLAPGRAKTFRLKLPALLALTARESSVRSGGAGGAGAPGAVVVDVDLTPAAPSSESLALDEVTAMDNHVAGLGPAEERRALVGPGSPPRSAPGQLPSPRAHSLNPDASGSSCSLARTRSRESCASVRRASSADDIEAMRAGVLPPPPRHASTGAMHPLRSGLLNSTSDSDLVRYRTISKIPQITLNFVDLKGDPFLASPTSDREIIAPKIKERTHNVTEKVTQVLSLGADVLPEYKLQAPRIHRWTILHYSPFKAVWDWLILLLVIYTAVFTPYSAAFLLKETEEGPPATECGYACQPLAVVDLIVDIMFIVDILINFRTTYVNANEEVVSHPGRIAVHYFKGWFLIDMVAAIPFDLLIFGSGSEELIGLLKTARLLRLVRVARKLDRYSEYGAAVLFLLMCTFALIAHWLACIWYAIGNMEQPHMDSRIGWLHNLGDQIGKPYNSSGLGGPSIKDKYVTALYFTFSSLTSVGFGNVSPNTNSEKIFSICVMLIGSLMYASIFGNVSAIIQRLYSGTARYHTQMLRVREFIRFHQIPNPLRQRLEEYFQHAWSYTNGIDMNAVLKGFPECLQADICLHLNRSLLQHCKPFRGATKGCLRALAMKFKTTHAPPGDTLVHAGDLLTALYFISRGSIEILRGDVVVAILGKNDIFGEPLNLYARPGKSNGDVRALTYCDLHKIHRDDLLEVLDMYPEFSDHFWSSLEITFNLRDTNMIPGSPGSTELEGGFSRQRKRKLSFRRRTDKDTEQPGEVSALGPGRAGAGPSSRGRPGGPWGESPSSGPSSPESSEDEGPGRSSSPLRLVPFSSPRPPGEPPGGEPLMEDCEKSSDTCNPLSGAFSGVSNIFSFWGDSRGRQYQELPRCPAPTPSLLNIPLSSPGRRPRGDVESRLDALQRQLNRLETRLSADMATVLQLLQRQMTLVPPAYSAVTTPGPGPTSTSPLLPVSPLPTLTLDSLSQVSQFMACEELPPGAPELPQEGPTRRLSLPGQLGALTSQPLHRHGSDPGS
A further test addresses Phospholipase A2 (Homo sapiens, UniProt P04054). The format is functional.
The target in the next test is Fatty acid synthase (Homo sapiens, UniProt P49327). Nature of the test: FAS thioesterase domain inhibitors, dose response, biochemical, kinetic fluorescence intensity (AID 624326).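 Further: rate of fluorescence rise from hydrolysis of a fluorogenic O-methyl fluorescein ester substrate.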 The format is functional.
A short description of test [4]: RKO cell viability reduction, dose response, CellTiter-Glo luminescence (AID 1117322). In kind it is functional. A general note: In ATP-based viability assays light output follows the ATP content of the culture.
The nature of test [5]: cytotoxicity toward Colo320 cells – cell-based, CellTiter-Glo luminescence, IC50, dose response (AID 1117334). The format is functional. As to conditions: COLO 320.
In test [6] the target is T1, Cytochrome P450 2D6 (Homo sapiens, UniProt P10635). In words: qHTS Assay for Inhibitors and Substrates of Cytochrome P450 2D6. [Related pubchem assays: 410 ]. In kind it is ADME. As to conditions: read-out: Potency. (qHTS replaces the single test concentration by a dilution series.)
T1 sequence (P10635 whole entry): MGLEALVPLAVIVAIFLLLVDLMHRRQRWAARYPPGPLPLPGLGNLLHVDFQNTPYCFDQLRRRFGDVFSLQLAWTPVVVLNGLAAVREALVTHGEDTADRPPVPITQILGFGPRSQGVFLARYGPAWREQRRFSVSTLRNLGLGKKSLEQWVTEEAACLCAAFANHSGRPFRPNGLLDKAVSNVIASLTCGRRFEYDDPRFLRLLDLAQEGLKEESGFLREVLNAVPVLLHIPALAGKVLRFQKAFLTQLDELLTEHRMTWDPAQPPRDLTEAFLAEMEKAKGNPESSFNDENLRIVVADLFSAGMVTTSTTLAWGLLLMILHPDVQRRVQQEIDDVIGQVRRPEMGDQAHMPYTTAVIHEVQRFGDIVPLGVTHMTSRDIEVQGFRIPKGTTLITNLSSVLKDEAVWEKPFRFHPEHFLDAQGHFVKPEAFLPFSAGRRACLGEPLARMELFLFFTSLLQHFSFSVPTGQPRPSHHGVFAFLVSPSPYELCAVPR
Test [7] in a line: SNU-C1 cell viability reduction, dose response, CellTiter-Glo luminescence (AID 1117323). The format is functional, cell-based.
A short description of test [8]: CellTiter-Glo luminescent dose response of DLD-1 viability loss (AID 1117352). The format is functional.
For a further test, the target named is T2, Cysteine protease ATG4B (Homo sapiens, UniProt Q9Y4P1).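 Further: Fluorescence-based dose-response confirmation assay measuring inhibition of ATG4B activity.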
T2 sequence (Q9Y4P1 whole entry): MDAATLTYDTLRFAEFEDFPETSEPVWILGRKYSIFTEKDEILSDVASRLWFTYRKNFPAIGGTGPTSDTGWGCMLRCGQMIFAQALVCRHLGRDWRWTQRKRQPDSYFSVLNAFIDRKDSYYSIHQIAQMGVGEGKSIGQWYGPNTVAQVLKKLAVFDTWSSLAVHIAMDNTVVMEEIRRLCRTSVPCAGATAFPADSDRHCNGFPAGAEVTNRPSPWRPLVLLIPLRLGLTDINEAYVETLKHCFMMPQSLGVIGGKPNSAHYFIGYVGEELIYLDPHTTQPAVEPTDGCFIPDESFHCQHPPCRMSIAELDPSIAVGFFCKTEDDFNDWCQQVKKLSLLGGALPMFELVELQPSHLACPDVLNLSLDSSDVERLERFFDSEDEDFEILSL
The format is functional.

A short description of test [9]: cytotoxicity toward HCT116 cells – cell-based, CellTiter-Glo luminescence, IC50, dose response (AID 1117332). In kind it is functional. The settings on record: HCT-116.
The nature of test [10]: Glucagon-like peptide 1 release potency, NCI-H716 cell line, dose-response, half-maximal inhibitory concentration (AID 1117344). The format is functional, cell-based.
The nature of test [11]: Concentration-dependent survival of SW480 colon cancer line, luminescence detection with CellTiter-Glo, half-maximal inhibitory concentration (AID 1117338). The format is functional.
Test [12] can be described thus: HCT116 cell viability decrease, GSK3B pretreatment – CellTiter-Glo, IC50, dose response (AID 1117339). In kind it is functional. As to conditions: HCT-116.
The target in another test is Mucolipin-3 (Homo sapiens, UniProt Q8TDD5). In words: Dose response cell-based high-throughput screening assay for agonists of the transient receptor potential channel ML3 (TRPML3). [Related pubchem assays: 1526, 1424, 1448 ]. The format is functional.
Chain of Mucolipin-3 (Q8TDD5 whole entry): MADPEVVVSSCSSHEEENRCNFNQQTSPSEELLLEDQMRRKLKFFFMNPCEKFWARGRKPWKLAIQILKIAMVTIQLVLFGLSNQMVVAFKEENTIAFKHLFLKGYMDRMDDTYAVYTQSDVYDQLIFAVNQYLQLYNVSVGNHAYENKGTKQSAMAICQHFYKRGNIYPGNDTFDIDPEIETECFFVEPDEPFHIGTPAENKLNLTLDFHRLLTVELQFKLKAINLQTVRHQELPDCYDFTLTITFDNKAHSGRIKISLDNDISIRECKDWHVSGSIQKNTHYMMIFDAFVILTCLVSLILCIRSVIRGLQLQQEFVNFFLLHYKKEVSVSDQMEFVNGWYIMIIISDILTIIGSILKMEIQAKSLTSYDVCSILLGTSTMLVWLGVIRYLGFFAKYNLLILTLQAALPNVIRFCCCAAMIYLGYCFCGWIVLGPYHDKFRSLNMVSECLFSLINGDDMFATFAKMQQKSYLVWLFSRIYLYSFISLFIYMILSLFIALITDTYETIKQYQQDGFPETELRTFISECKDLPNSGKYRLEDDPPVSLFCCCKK
Test [13] concerns the target T3, Long-chain-fatty-acid--AMP ligase FadD28 (Mycobacterium tuberculosis, UniProt P9WQ59).
T3 sequence (P9WQ59 whole entry): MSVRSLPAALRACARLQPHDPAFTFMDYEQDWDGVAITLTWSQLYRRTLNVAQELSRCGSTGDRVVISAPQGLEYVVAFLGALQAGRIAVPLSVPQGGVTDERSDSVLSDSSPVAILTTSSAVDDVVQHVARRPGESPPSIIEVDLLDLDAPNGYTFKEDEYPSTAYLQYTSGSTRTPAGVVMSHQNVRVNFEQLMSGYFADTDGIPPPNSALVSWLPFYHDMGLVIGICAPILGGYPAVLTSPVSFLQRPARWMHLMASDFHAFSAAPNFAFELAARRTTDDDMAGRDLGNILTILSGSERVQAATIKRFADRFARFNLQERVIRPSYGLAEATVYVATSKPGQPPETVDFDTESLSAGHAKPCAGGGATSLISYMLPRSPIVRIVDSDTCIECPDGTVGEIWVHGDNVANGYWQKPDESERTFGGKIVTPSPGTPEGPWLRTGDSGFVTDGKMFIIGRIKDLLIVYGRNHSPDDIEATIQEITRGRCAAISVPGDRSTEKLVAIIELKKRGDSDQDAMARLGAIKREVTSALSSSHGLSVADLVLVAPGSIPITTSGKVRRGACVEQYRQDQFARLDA
Nature of the test: Fluorescence polarization aasay to screen for inhibitors that compete for the binding of FadD28 to a bisubstrate Measured in Biochemical System Using Plate Reader - 2147-01_Inhibitor_Dose_CherryPick_Activity. In kind it is functional, Mycobacterium tuberculosis H37Rv. A general note: In fluorescence polarisation assays a small probe gives low polarisation when free and higher when bound to something large.

The target of a further test is Ion channel NompC (Danio rerio, UniProt Q7T1G6). Nature of the test: Fluorescence counterscreen assay for TRPML3 agonists: dose response cell-based high-throughput screening assay to identify agonists of the transient receptor potential channel N1 (TRPN1). [Related pubchem assays: 1526, 1424, 1448 ]. The format is functional.
Chain of Ion channel NompC (Q7T1G6 whole entry): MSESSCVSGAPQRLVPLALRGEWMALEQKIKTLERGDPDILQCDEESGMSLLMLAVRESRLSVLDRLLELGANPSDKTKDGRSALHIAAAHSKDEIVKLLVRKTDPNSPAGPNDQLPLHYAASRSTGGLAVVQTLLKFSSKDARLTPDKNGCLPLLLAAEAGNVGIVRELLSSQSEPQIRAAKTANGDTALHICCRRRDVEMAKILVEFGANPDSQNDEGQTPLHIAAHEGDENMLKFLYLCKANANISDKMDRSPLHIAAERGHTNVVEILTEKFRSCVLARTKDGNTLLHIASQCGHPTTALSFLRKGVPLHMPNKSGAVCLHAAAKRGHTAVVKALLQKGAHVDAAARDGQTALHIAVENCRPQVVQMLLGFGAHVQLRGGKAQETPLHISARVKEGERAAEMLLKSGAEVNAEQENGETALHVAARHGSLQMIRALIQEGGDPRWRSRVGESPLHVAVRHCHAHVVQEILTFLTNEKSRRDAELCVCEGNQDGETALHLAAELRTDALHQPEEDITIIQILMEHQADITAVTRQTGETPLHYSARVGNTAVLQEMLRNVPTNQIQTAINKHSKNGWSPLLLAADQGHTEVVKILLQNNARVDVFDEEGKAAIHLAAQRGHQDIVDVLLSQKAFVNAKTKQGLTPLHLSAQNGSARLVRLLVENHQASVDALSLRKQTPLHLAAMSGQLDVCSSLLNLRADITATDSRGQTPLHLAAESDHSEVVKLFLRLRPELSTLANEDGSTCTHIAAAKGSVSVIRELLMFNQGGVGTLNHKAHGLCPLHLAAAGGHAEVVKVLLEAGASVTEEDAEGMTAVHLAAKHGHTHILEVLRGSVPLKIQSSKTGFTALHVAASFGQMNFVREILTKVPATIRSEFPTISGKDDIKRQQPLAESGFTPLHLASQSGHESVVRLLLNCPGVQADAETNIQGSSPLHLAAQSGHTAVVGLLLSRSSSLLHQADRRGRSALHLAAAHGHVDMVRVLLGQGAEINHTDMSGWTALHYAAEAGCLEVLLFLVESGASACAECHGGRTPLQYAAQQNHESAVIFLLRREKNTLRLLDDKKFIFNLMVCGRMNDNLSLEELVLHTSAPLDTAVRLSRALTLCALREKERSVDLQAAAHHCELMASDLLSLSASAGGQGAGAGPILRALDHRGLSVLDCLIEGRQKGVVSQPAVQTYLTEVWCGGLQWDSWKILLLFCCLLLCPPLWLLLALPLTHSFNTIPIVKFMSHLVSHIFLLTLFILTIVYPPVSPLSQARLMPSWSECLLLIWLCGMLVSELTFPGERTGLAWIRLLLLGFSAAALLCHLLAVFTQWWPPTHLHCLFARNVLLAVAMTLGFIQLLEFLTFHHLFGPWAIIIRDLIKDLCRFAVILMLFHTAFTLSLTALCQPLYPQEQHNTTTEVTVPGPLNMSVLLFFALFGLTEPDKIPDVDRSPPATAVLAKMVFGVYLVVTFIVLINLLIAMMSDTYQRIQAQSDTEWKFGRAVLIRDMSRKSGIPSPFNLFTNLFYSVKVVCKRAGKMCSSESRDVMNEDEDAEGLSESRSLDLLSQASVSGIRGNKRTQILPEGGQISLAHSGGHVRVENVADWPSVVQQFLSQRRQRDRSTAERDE
The subject of another test is HT-1080. Nature of the test: cytotoxicity in HT1080 fibrosarcoma cells, cell-based, fluorescence readout (AID 620). The format is functional. The settings on record: Homo sapiens.
In test [14] the target is Luciferin 4-monooxygenase (Photinus pyralis, UniProt P08659). Nature of the test: Counter Screen for Luciferase-based Assay Positives. [Related pubchem assays: 620, 618, 411 ].
Chain of Luciferin 4-monooxygenase (P08659 whole entry): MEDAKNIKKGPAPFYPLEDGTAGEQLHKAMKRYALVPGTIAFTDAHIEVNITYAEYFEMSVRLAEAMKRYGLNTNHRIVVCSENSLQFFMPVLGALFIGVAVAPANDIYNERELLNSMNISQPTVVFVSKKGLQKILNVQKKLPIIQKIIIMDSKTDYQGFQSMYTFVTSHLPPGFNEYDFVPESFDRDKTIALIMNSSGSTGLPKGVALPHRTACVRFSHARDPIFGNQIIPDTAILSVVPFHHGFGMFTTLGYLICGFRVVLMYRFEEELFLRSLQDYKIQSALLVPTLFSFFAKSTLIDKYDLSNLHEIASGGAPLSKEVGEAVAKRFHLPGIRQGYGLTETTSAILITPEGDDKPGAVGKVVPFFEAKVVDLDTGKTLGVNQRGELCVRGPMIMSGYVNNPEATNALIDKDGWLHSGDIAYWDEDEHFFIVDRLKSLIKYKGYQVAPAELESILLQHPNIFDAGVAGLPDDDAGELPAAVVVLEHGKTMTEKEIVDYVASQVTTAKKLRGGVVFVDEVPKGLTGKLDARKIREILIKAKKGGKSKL
In test [15] the target is T1, Cytochrome P450 2D6.
For the next test, the target named is Cytochrome P450 2C9 (Homo sapiens, UniProt P11712).
Chain of Cytochrome P450 2C9 (P11712 whole entry): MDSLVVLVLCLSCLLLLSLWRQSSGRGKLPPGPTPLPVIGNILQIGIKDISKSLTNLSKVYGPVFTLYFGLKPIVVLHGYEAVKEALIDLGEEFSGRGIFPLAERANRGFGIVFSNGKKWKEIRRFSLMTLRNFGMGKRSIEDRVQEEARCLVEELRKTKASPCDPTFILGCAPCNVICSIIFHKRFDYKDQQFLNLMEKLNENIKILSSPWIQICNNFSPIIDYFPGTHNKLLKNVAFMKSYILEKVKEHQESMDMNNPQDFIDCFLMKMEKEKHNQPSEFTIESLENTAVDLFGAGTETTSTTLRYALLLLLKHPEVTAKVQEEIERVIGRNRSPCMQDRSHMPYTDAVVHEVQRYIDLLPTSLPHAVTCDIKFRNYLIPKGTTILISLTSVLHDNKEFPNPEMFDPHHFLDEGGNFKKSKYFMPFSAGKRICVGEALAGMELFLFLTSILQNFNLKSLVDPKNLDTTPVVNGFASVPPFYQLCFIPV
In test [16] the target is T4, Zinc finger protein mex-5 (Caenorhabditis elegans, UniProt Q9XUB2).
T4 sequence (Q9XUB2 whole entry): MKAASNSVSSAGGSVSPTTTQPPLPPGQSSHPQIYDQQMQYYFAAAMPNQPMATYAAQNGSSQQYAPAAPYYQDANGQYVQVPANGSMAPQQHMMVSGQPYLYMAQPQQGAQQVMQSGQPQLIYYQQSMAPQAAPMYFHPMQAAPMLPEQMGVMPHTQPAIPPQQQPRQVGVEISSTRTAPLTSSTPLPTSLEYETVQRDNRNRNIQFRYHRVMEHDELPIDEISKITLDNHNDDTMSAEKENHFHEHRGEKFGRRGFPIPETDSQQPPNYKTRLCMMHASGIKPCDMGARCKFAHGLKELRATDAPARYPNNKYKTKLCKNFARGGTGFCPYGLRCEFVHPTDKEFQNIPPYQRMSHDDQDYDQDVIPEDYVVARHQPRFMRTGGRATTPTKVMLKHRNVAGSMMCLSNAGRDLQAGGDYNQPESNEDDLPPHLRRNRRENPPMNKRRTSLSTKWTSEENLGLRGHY
In words: MEX-5/TCR-2 RNA interaction inhibitors, dose response, biochemical, C. elegans, fluorescence polarization (AID 1960).

The next test has as its target NS3 (Hepatitis C virus, UniProt A3EZJ3). Nature of the test: PubChem AID 2173. Also on record: species or system Hepacivirus hominis.
Test [17] deals with T5, RNA-binding protein pos-1 (Caenorhabditis elegans, UniProt G5EF15).
T5 sequence (G5EF15 whole entry): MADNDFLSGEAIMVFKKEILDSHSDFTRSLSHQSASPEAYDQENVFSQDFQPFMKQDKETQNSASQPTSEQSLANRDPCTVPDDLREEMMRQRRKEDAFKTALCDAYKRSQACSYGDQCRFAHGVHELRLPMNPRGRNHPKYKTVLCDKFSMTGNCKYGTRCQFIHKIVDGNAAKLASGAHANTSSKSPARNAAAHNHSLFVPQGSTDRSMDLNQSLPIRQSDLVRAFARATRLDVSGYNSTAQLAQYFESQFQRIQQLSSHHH
In words: inhibitors of POS-1/mex-3 RNA binding, dose response, biochemical, fluorescence polarization (AID 1964).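 Further: purified POS-1 fused to maltose binding protein made in E. coli; potency of compounds blocking POS-1 binding to fluorescent RNA.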

Chain of Phospholipase A2 (P04054 whole entry, the tested form may be a part): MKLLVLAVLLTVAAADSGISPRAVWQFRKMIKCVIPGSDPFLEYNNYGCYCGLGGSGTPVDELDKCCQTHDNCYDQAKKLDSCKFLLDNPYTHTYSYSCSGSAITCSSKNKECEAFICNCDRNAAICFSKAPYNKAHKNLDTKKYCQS

As to `Oc1ccc(Cl)cc1Sc1cc(Cl)ccc1O` [FENTICLOR], the figures for the AC50 (in test [1]; in test [3]; on Cytochrome P450 2D6 [6]) were 4.11 µM (active), 31.6 µM (inconclusive) and 3.16 µM (inconclusive), respectively. Also, the IC50 in test [2] was > 20 µM (inactive); on Phospholipase A2 it was 15.2 µM (active); at Fatty acid synthase, 3.52 µM (active); in [4], 0.116 µM (active); in test [5] it was 0.075 µM (active); in test [7] it was 1.85 µM (active). The IC50 in test [8] is 0.301 µM (active); at Cysteine protease ATG4B, 11 µM (active); in test [9] it was 0.183 µM (active); in test [10] it was 21.3 µM (inactive); in [11], 0.579 µM (active); in [12], 0.148 µM (active).
Turning to `CC1CCCC(C)N1C(=C(Cl)Cl)C(=C1SCCS1)[N+](=O)[O-]` (stereo not given), the concentration for a half-maximal effect (EC50) on Mucolipin-3 is 6.91 µM (active); at Ion channel NompC it was > 29.9 µM (not active). Moreover, the AC50 in test [13] was > 100 µM (inactive).
`COc1ccc(-c2nsc3c(N4CCCCC4)ncnc23)cc1`: the EC50 is > 50 µM (not active) in the test with HT-1080 and 4.6 µM (active) in test [14]. Besides, the values for the AC50 at Cytochrome P450 2D6 [15] and at Cytochrome P450 2C9 were 15.8 µM (inconclusive) and 5.01 µM (inconclusive), respectively.
For `COc1cccc(C2C(C#N)=C(N)OC3=C2C(=O)CC(c2ccco2)C3)c1OCc1ccc(F)cc1` (stereo not given), the EC50 in test [16] and in [17] was > 300 µM (not active) each time. Also, the IC50 on NS3 is 33.5 µM (not active).

The IC50 is the point on the concentration scale where inhibition reaches its midpoint. What is called EC50 is the midpoint of the concentration-response curve.
